Measurements reported in patent US20130197088A1, “Compositions and Methods for Combinations of Oligoamines with 2-Difluoromethylornithine (DFMO)” (priority 2010, published 2013).
Entries after “also recorded” stand apart in the source; their conditions may differ. Each block holds one compound with its values, some of them ahead of it.

Columns and labels:
[1] = tested on: Egr1 and Oct4 genes in P19 embryonal carcinoma cells; conditions: cited from earlier work
[2] = guinea pigs; cited from earlier work
ODC [3] = target: T1, ODC (Homo sapiens, UniProt P11926); conditions: concentrations from 0.6 μM to 80 μM; cited from earlier work
T1 sequence (P11926 1-461): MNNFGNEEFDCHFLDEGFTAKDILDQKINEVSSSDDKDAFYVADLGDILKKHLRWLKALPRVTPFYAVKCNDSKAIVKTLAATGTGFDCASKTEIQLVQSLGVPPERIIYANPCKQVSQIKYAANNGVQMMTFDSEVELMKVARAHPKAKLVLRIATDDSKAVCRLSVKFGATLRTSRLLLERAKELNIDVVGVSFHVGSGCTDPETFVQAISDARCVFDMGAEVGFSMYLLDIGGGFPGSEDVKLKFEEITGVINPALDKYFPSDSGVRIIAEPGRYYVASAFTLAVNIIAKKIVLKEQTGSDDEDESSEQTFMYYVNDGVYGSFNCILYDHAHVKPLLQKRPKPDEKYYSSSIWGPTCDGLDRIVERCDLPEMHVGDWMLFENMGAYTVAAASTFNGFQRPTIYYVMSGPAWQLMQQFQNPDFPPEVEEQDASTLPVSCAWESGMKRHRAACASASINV

ODC [4] = target: T1, ODC; test: Inhibition of ODC activity by DFMO enantiomers; type: biochemical
Method: The use of D-DFMO or enriched D-isomer mixtures can overcome many of the problems associated with the use of racemic (50/50) D,L-DFMO. D-DFMO or enriched D-DFMO isomer mixtures may be administered at a dosage higher than a racemic mixture, due to lower anticipated toxicity associated with the D enantiomer. In three separate studies using concentrations from 0.6 μM to 80 μM D-, L-, and D,L-DFMO, the effective concentration level of each which inhibits 50% of the ODC activity (Ki) can be determined. Both enantiomers, as well as the racemic mixture, were inhibitory.

[5] = tested on: H3K4me2 at the promoter of SFRP2 in HCT116 cells; test: ChIP analysis of H3K4me2 at the SFRP2 promoter; type: cell-based, human; conditions: 2.5 μM PG-11144 alone
Method: HCT116 cells are first treated for 24 hours with 5 mM DFMO followed by another 24 hours treatment of replenished 5 mM DFMO and 2.5 μM PG-11144 alone or simultaneously. Chromatin immunoprecipitation (CHIP) analysis is performed using EZ-chip kit (Millipore). In brief, cells are exposed to 1% formaldehyde to cross-link proteins, and two million cells are used for each CHIP assay. Antibodies against H3K4me2, and for control, H3 are used as indicated for immunoprecipitation of protein-DNA complexes. Quantitative ChIP is performed using qPCR on the MyiQ single color real-time PCR machine. The PCR primer sets used for amplification of precipitated SFRP2 promoter fragments are as follows: sense, 5′ CTCCCTCCCAGCCTGCCCATCTT (SEQ ID NO: 3); antisense, 5′ ACTGCCCACCATTTCCCCGTTTTG (SEQ ID NO: 4) (annealing at 61° C.). The relative enrichment of H3K4me2 for control samples is set to a value of 1.
Chromatin Immunoprecipitation (ChIP): CHIP analysis is performed using EZ-chip kit (Millipore) according to the manufacturer's instruction. In brief, cells are exposed to 1% formaldehyde to cross-link proteins, and two million cells are used for each CHIP assay. Antibody against H3 can be obtained from Abeam (Cambridge, Mass.) and antibody against H3K4me2 can be obtained from Millipore. Quantitative ChIP is performed using qPCR on the MyiQ single color real-time PCR machine. […]

HCT116 cells = test: Intracellular polyamine pools by high pressure liquid chromatography after DFMO / PG-11144 treatment; type: cell-based, human
Method: DFMO (2- or α-difluoromethylornithine) can be obtained from Merrell Dow Pharmaceutical Inc. (Cincinnati, Ohio). Polyamine analogues are provided by Progen Pharmaceuticals Ltd. (Queensland, Australia). Stock solutions of each compound are diluted with medium to the desired concentrations for specific experiments. HCT116 colorectal carcinoma cells are maintained in McCoy's 5A medium supplemented with 9% FBS (Atlanta Biologicals, Lawrenceville, Ga.) and 1% penicillin/streptomycin (Mediatech, Manassas, Va.), and grown at 37° C. in 5% CO2 atmosphere. For experiments, HCT116 cells are first treated for 24 hours with 5 mM DFMO followed by another 24 hours treatment of replenished 5 mM DFMO and polyamine analogues in the indicated doses alone or simultaneously. Intracellular polyamine concentrations are determined by high pressure liquid chromatography.
A mixture of both D-enantiomer of DFMO and L-enantiomer of DFMO is used to generate data in Table 1.

[6] = tested on: HCT116 human colon tumors; test: Established tumors in nude mouse model; type: in vivo; conditions: PG-11144 alone, nude mice
SFRP2 in HCT116 cells = test: Re-expression of aberrantly silenced SFRP2, qPCR; type: cell-based, human
Method: HCT116 cells are first treated for 24 hour with 5 mM DFMO followed by another 24 hour treatment of replenished 5 mM DFMO and oligoamines (PG-11144 and PG-11150 for panel A, PG-11157, PG 11158 and PG-11159 for panel B) alone or simultaneously. RNA is extracted using TRIzol reagents and first-strand cDNA is synthesized using M-MLV reverse transcriptase with an oligo(dT) primer (Invitrogen). qPCR for SFRP2 is performed in a MyiQ single color real-time PCR machine with GAPDH as an internal control. The SFRP2 primers used for qPCR are: sense, 5′ AAGCCTGCAAAAATAAAAATGATG (SEQ ID NO: 1); antisense, 5′ TGTAAATGGTCTTGCTCTTGGTCT (SEQ ID NO: 2) (annealing at 53° C.). The quantified results are the mean of triplicate treatments. The transcript level for control samples was set to a value of 1. S.D. is indicated by the error bars.
HCT116 cells are first treated for 24 hours with 5 mM DFMO followed by another 24 hours treatment of replenished 5 mM DFMO and PG-11144 in the indicated doses alone or simultaneously. RNA isolation and qPCR are performed. The quantified results are the means of triplicate treatments with S.D. as indicated. The transcript level for control samples is set to a value of 1.
RNA Isolation and qPCR: RNA is extracted using TRIzol reagents (Invitrogen, Carlsbad, Calif.). First-strand cDNA is synthesized using M-MLV reverse transcriptase with an oligo(dT) primer (Invitrogen). qPCR is performed in a MyiQ single color real-time PCR machine (Bio-Rad, Hercules, Calif.) with GAPDH as an internal control. The SFRP2 primers used are: sense, 5′ AAGCCTGCAAAAATAAAAATGATG (SEQ ID NO: 1); antisense, 5′ TGTAAATGGTCTTGCTCTTGGTCT (SEQ ID NO: 2) (annealing at 53° C.).

[7] = tested on: six human tumors (three mammary carcinomas, a malignant melanoma, a bladder carcinoma, an endocervical carcinoma); conditions: after DFMO treatment; cited from earlier work
[8] = tested on: colon adenomas and carcinomas; conditions: animal models of colon carcinogenesis; cited from earlier work

SMILES: N[C@@H]1C[C@H]1c1ccccc1 [tranylcypromine, (1R,2S)-2-phenylcyclopropan-1-amine]
- Effect on Egr1 and Oct4 gene transcription [1]: transcriptional de-repression

- Ki of D-DFMO relative to the L-form (ODC [4]): four fold lower
- Ki of D-DFMO relative to the mixture (ODC [4]): 3 fold
SMILES: NCCC[C@@](N)(C(=O)O)C(F)F [D-DFMO]
- Effect on auditory function (compound action potential, cochlear microphonic, cochlear potentials) [2]: no significant effects
- Inhibition of ODC activity (ODC [3]): inhibitory

SMILES: CCNCCCCNCCCCNCCCCNCCCCNCC=CCNCCCCNCCCCNCCCCNCCCCNCC (stereo in doubt) [PG-11144]
- Promoter H3K4me2 levels (SFRP2 promoter, ChIP) [5]: does not lead to
- Polyamines: Putresine (HCT116 cells; PG-11144 0.5 μM, 24 h): 4.7 nmol/mg Protein
- Polyamines: Spermidine (HCT116 cells; PG-11144 0.5 μM, 24 h): 9.1 nmol/mg Protein
- Polyamines: Spermine (HCT116 cells; PG-11144 0.5 μM, 24 h): 11.2 nmol/mg Protein
- Polyamines: Putresine (HCT116 cells; PG-11144 1 μM, 24 h): 4.7 nmol/mg Protein
- Polyamines: Spermidine (HCT116 cells; PG-11144 1 μM, 24 h): 8.4 nmol/mg Protein
- Polyamines: Spermine (HCT116 cells; PG-11144 1 μM, 24 h): 10.1 nmol/mg Protein
- Polyamines: Putresine (HCT116 cells; PG-11144 2.5 μM, 24 h): 3.8 nmol/mg Protein
- Polyamines: Spermidine (HCT116 cells; PG-11144 2.5 μM, 24 h): 5.6 nmol/mg Protein
- Polyamines: Spermine (HCT116 cells; PG-11144 2.5 μM, 24 h): 6.2 nmol/mg Protein
- Polyamines: Putresine (HCT116 cells; PG-11144 5 μM, 24 h): 0.0 nmol/mg Protein
- Polyamines: Spermidine (HCT116 cells; PG-11144 5 μM, 24 h): 4.2 nmol/mg Protein
- Polyamines: Spermine (HCT116 cells; PG-11144 5 μM, 24 h): 4.9 nmol/mg Protein
- Polyamines: Putresine (HCT116 cells; PG-11144 10 μM, 24 h): 0.0 nmol/mg Protein
- Polyamines: Spermidine (HCT116 cells; PG-11144 10 μM, 24 h): 4.1 nmol/mg Protein
- Polyamines: Spermine (HCT116 cells; PG-11144 10 μM, 24 h): 6.4 nmol/mg Protein
- Antitumor activity on established tumors [6]: effective in treating established tumors; also recorded: effective in shrinking established HCT116 human colon tumors
- SFRP2 expression (SFRP2 in HCT116 cells; 2.5 μM PG-11144 alone): does not lead to increased SFRP2 expression
- SFRP2 re-expression, synergy with DFMO (dose response) (SFRP2 in HCT116 cells; 5 μM PG-11144 with 5 mM DFMO): greatest synergy with DFMO
- SFRP2 expression (dose response) (SFRP2 in HCT116 cells; PG-11144 concentrations higher than 5 μM with 5 mM DFMO): less SFRP2 expression

SMILES: NCCC[C@](N)(C(=O)O)C(F)F [L-DFMO]
- Effect on auditory function (compound action potential, cochlear microphonic, cochlear potentials) [2]: significant disruption of normal cochlear potentials
- Inhibition of ODC activity (ODC [3]): inhibitory

SMILES: NCCC[C@](N)(C(=O)O)C(F)F [DFMO, 2-difluoromethylornithine]
- Growth of human tumors compared to control mice [7]: significantly decreased
- Number and size of colon adenomas and carcinomas [8]: reduces the number and size of colon adenomas and carcinomas
- Polyamines: Putresine (HCT116 cells; DFMO 5 mM alone): 0.0 nmol/mg Protein
- Polyamines: Spermidine (HCT116 cells; DFMO 5 mM alone): 0.0 nmol/mg Protein
- Polyamines: Spermine (HCT116 cells; DFMO 5 mM alone): 13.9 nmol/mg Protein

SMILES: NCCCC(N)(C(=O)O)C(F)F (racemic) [D,L-DFMO]
- Inhibition of ODC activity (ODC [3]): inhibitory
